Results taken from patent US9247759B2, “Identification of human T2R receptors that respond to bitter compounds that elicit the bitter taste in compositions, and the use thereof in assays to identify compounds that inhibit (block) bitter taste in compositions and use thereof” (SENOMYX, INC., priority 2007, dated 2016).
Like-named read-outs stand apart in the source and are kept apart here.

Tests used:
hT2R8 = hT2R8 (Homo sapiens (Human), UniProt Q9NYW2); test: hT2R8 antagonist high-throughput FLIPR assay, stable cell line with G16g44, agonist andrographolide; type: cell-based
Method in brief: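 HEK293 cells stably co-expressing hT2R8 and chimeric G16g44, read on FLIPR. Test compounds added together with andrographolide (200 μM), which drives the receptor to 70–80% of maximal activity; antagonism seen as reduced agonist response.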

[1] = tested on: bitter taste of instant coffee; test: 2-alternative forced choice taste test, instant coffee with hT2R8 antagonists; type: in vivo, human; conditions: antagonist 5 μM
Description: Taste tests were performed with hT2R8 antagonists in instant coffee using a 2-alternative forced choice method with a taste panel of 15-20 panelists. Coffee samples with the antagonists were given to the taste panelists together with the same sample without antagonists, the panelists were asked to identify the bitterer sample within the pair.

hT2R14 [2] = biological target: T1, hT2R14 (Homo sapiens (Human), UniProt Q9NYV8); test: hT2R14 antagonist high-throughput FLIPR assay, stable cell line with G16g44, agonist aristolochic acid; type: cell-based; conditions: read-out: IC50 on hT2R14 bitter receptor
Method in brief: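 HEK293 cells stably expressing hT2R14 with chimeric G16g44 were stimulated with aristolochic acid (3 μM), giving 70-80% of maximal receptor activity. Test compounds were added together with the agonist, and antagonism was read as fluorescent calcium signal on FLIPR.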

hT2R3 = hT2R3 (Homo sapiens (Human), UniProt Q9NYW6); test: hT2R panel inhibition, transient HEK293 G16g44, agonist Chloroquine pH6.5 50 μM; type: cell-based; conditions: HEK293, compound at 25 μM; receptor activated to EC80 with the corresponding agonist; read-out: screening result against bitter receptor 3
Method in brief: (§1)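 Receptor activity was measured in functional assays after single-receptor transient transfection; bitter agonists were used at their EC80 levels. A decrease in that activity when the test compound was added was taken as inhibition.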

hT2R4 = hT2R4 (Homo sapiens (Human), UniProt Q9NYW5); test: hT2R panel inhibition, transient HEK293 G16g44, agonist Chloroquine pH6.5 5 mM; type: cell-based; conditions: HEK293, compound at 25 μM; receptor activated to EC80 with the corresponding agonist; class symbols; read-out: screening result against bitter receptor 4
Method in brief: as §1

hT2R5 = hT2R5 (Homo sapiens (Human), UniProt Q9NYW4); test: hT2R panel inhibition, transient HEK293 G16g44, agonist Picoline 10 mM; type: cell-based; conditions: HEK293, compound at 25 μM; receptor activated to EC80 with the corresponding agonist; read-out: screening result against bitter receptor 5
Method in brief: as §1

hT2R7 = hT2R7 (Homo sapiens (Human), UniProt Q9NYW3); test: hT2R panel inhibition, transient HEK293 G16g44, agonist Chloroquine pH6.5 10 mM; type: cell-based; conditions: HEK293, compound at 25 μM; receptor activated to EC80 with the corresponding agonist; read-out: screening result against bitter receptor 7
Method in brief: as §1

hT2R10 = hT2R10 (Homo sapiens (Human), UniProt Q9NYW0); test: hT2R panel inhibition, transient HEK293 G16g44, agonist Strychnine 50 μM; type: cell-based; conditions: HEK293, read-out: screening result against bitter receptor 10, compound at 25 μM; receptor activated to EC80 with the corresponding agonist
hT2R14 [3] = biological target: T1, hT2R14; test: hT2R panel inhibition, transient HEK293 G16g44, agonist Aristolochic Acid 2 μM; type: cell-based; conditions: HEK293, compound at 25 μM; receptor activated to EC80 with the corresponding agonist; read-out: screening result against bitter receptor 14
Method in brief: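 Each hT2R was transiently transfected into HEK293 cells stably expressing G16g44 and assayed functionally for inhibition of agonist response. Agonists were applied at EC80: andrographolide at 0.5 mM for hT2R8 and aristolochic acid at 2 μM for hT2R14.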

hT2R16 = hT2R16 (Homo sapiens (Human), UniProt Q9NYV7); test: hT2R panel inhibition, transient HEK293 G16g44, agonist Salicin 1 mM; type: cell-based; conditions: HEK293, compound at 25 μM; receptor activated to EC80 with the corresponding agonist; read-out: screening result against bitter receptor 16
Method in brief: as §1

hT2R44 = test: hT2R panel inhibition, transient HEK293 G16g44, agonist Denatonium 0.5 μM; type: cell-based, human; conditions: compound at 25 μM; receptor activated to EC80 with the corresponding agonist
Method in brief: as §1

hT2R51 = hT2R51 (Homo sapiens (Human), UniProt P59533); test: hT2R panel inhibition, transient HEK293 G16g44, agonist Prop 2.5 μM; type: cell-based; conditions: HEK293, compound at 25 μM; receptor activated to EC80 with the corresponding agonist; read-out: screening result against bitter receptor 51
Method in brief: as §1

hT2R54 = test: hT2R panel inhibition, transient HEK293 G16g44, agonist Ranitidine 5 mM; type: cell-based, human; conditions: compound at 25 μM; receptor activated to EC80 with the corresponding agonist
Method in brief: as §1

hT2R55 = test: hT2R panel inhibition, transient HEK293 G16g44, agonist Cinchonine 150 μM; type: cell-based, human; conditions: compound at 25 μM; receptor activated to EC80 with the corresponding agonist
Method in brief: as §1

hT2R61 = hT2R61 (Homo sapiens (Human), UniProt P59537); test: hT2R panel inhibition, transient HEK293 G16g44, agonist Aristolochic Acid 25 nM; type: cell-based; conditions: HEK293, compound at 25 μM; receptor activated to EC80 with the corresponding agonist; read-out: screening result against bitter receptor 61
Method in brief: as §1

hT2R63 = test: hT2R panel inhibition, transient HEK293 G16g44, agonist Caffeine 1 mM or Andrographolide 100 μM; type: cell-based, human; conditions: compound at 25 μM; receptor activated to EC80 with the corresponding agonist
Method in brief: as §1

hT2R64 = hT2R64 (Homo sapiens (Human), UniProt P59538); test: hT2R panel inhibition, transient HEK293 G16g44, agonist Aristolochic Acid 1 μM; type: cell-based; conditions: HEK293, compound at 25 μM; receptor activated to EC80 with the corresponding agonist; read-out: screening result against bitter receptor 64
Method in brief: as §1

hT2R65 = test: hT2R panel inhibition, transient HEK293 G16g44, agonist Oleuropein 1 mM; type: cell-based, human; conditions: compound at 25 μM; receptor activated to EC80 with the corresponding agonist
Method in brief: as §1

hT2R67 = test: hT2R panel inhibition, transient HEK293 G16g44, agonist Andrographolide 5 μM; type: cell-based, human; conditions: compound at 25 μM; receptor activated to EC80 with the corresponding agonist
Method in brief: as §1

hT2R71 = hT2R71 (Homo sapiens (Human), UniProt P59536); test: hT2R panel inhibition, transient HEK293 G16g44, agonist Picric Acid 10 μM; type: cell-based; conditions: HEK293, compound at 25 μM; receptor activated to EC80 with the corresponding agonist; read-out: screening result against bitter receptor 71
Method in brief: as §1

hT2R75 = hT2R75 (Homo sapiens (Human), UniProt P59540); test: hT2R panel inhibition, transient HEK293 G16g44, agonist Strychnine 1 μM; type: cell-based; conditions: HEK293, read-out: screening result against bitter receptor 75, compound at 25 μM; receptor activated to EC80 with the corresponding agonist
[4] = read-out: IC50 on hT2R8 bitter receptor
[5] = table after Example 10-97, read-out: hT2R8 IC50

hT2R8, sequence (Q9NYW2 whole entry): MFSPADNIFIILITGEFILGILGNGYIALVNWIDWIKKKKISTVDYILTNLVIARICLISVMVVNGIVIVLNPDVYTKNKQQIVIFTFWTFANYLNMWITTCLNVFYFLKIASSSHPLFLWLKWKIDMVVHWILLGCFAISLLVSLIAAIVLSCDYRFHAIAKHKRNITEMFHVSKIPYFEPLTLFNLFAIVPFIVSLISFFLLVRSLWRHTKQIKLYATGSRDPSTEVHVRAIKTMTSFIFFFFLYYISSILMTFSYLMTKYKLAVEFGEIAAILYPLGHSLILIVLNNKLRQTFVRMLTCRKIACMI
T1 sequence (Q9NYV8 whole entry): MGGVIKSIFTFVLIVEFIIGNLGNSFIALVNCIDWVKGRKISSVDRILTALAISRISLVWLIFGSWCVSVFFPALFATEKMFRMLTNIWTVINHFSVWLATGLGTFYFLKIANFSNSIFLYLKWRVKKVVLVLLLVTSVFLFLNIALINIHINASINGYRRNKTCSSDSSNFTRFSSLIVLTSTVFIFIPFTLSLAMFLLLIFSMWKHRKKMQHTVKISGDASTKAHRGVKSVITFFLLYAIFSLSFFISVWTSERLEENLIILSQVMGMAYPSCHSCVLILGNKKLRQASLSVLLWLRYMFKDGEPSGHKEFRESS
hT2R71, sequence (P59536 whole entry): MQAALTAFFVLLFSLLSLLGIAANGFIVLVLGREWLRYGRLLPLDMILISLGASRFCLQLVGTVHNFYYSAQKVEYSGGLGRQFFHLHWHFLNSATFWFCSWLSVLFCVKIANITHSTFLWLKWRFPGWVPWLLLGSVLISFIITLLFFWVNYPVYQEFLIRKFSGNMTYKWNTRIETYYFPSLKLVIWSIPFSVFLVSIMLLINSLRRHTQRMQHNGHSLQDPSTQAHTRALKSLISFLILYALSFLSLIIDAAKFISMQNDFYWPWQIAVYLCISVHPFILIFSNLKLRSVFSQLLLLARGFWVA
hT2R75, sequence (P59540 whole entry): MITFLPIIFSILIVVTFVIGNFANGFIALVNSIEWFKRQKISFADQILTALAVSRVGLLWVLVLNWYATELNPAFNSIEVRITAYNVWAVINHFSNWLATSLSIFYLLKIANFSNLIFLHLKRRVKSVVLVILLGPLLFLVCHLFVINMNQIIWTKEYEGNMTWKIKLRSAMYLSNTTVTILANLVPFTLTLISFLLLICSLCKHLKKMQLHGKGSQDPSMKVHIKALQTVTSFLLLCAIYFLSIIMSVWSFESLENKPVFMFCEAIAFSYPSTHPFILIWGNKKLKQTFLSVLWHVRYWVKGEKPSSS
hT2R10, sequence (Q9NYW0 whole entry): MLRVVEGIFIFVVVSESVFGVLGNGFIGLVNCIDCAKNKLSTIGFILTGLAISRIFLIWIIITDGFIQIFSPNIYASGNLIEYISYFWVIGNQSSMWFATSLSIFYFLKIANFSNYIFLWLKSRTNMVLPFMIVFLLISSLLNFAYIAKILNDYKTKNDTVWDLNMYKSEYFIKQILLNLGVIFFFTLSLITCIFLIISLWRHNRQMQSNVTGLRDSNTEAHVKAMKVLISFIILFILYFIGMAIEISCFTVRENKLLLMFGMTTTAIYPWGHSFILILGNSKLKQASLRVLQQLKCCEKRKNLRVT
hT2R16, sequence (Q9NYV7 whole entry): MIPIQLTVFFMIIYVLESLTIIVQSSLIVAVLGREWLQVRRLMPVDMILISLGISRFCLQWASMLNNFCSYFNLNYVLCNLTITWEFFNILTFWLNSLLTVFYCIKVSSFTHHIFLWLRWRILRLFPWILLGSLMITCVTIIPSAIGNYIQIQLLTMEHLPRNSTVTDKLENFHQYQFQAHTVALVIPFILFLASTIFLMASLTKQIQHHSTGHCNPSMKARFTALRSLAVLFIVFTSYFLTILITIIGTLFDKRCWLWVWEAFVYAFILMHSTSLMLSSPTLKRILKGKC
hT2R51, sequence (P59533 whole entry): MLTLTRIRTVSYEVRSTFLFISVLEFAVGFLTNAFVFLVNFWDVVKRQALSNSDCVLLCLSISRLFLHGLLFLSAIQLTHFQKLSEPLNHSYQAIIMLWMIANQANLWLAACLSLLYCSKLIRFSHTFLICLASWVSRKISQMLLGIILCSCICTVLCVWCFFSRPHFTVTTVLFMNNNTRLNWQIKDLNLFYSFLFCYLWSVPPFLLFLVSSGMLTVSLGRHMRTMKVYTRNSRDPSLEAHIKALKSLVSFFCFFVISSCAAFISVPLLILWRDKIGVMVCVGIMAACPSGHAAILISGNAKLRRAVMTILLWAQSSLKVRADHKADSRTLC
hT2R3, sequence (Q9NYW6 whole entry): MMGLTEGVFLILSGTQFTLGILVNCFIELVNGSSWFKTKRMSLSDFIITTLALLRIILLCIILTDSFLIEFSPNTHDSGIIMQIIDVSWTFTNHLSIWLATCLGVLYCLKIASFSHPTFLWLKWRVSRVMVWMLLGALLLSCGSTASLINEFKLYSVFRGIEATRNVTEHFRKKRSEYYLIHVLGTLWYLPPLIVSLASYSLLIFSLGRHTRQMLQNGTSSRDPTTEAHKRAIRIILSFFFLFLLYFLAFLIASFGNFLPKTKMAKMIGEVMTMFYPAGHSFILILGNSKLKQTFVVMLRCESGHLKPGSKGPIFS
hT2R5, sequence (Q9NYW4 whole entry): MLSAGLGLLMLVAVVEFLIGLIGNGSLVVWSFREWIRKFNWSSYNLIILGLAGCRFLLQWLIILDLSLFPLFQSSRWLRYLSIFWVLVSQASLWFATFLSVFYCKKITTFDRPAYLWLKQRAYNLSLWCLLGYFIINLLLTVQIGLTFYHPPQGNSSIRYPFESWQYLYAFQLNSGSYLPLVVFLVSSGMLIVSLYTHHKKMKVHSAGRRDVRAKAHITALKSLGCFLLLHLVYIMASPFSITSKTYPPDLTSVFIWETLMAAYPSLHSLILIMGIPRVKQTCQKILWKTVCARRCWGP
hT2R61, sequence (P59537 whole entry): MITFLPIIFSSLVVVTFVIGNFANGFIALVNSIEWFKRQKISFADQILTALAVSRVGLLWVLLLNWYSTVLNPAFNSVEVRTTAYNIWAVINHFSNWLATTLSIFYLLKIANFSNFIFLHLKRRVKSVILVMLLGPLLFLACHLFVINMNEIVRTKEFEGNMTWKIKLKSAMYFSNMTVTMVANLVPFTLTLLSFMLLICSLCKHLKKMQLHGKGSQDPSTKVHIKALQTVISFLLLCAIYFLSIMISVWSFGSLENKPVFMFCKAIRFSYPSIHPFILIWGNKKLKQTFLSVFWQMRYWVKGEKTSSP
hT2R4, sequence (Q9NYW5 whole entry): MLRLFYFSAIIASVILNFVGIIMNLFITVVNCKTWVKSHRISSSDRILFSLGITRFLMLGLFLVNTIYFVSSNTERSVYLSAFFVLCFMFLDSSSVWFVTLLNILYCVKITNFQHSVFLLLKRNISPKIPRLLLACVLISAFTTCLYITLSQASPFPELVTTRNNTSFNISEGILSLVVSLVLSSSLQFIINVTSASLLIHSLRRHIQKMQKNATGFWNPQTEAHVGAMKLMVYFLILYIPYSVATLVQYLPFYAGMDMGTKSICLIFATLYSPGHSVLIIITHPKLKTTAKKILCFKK
hT2R7, sequence (Q9NYW3 whole entry): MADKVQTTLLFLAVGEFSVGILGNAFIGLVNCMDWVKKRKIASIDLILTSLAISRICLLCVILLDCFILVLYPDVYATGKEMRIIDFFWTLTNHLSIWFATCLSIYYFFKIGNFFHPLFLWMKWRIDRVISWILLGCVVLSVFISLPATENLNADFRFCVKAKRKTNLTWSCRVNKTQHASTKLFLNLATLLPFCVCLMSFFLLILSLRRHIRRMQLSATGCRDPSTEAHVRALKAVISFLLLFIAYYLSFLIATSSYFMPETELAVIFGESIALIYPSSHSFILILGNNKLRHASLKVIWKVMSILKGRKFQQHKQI
hT2R64, sequence (P59538 whole entry): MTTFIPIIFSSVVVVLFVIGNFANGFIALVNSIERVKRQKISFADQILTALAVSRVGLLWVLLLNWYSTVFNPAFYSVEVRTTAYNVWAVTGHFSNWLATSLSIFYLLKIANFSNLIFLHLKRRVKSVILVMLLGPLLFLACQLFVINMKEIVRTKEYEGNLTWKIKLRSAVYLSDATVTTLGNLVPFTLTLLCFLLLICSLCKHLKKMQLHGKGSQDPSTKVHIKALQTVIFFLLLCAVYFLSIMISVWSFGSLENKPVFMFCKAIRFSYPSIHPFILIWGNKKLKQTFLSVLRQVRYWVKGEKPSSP

Compound | IC50 (hT2R8; [4]) [nM] | melting point [°C] | further results
Cc1noc(C)c1Cn1cc(N2C(=O)N(Cc3cccc(O)c3)C(C)(C)C2=O)cn1 [Example 12-1, 3-(1-((3,5-dimethylisoxazol-4-yl)methyl)-1H-pyrazol-4-yl)-1-(3-hydroxybenzyl)-5,5-dimethylimidazolidine-2,4-dione] | 50 |  | Selected as bitterer: With antagonists [1]: 2; Selected as bitterer: Without antagonists [1]: 14
Cc1noc(C)c1Cn1cc(N2C(=O)N(Cc3cccc(CO)c3)C(C)(C)C2=O)cn1 [Example 12-34, 3-(1-((3,5-dimethylisoxazol-4-yl)methyl)-1H-pyrazol-4-yl)-1-(3-(hydroxymethyl)benzyl)-5,5-dimethylimidazolidine-2,4-dione] | 110 |  | Selected as bitterer: With antagonists [1]: 3; Selected as bitterer: Without antagonists [1]: 13
Cc1noc(C)c1Cn1cc(NC(=O)C(C)c2ccccc2)cn1 (centres unmarked) [Example 4-5, N-(1-((3,5-dimethylisoxazol-4-yl)methyl)-1H-pyrazol-4-yl)-2-phenylpropanamide] | 320 | 129 to 130 | 
COc1ccccc1CCN1CC(=O)N(c2cnn(Cc3c(C)noc3C)c2)C1=O [Example 10-76, 3-(1-((3,5-dimethylisoxazol-4-yl)methyl)-1H-pyrazol-4-yl)-1-(2-methoxyphenethyl)imidazolidine-2,4-dione] | 140 | 97 to 98 | IC50 (hT2R8; [5]): 97 nM
COc1ccc(CN2C(=O)N(c3cnn(Cc4c(C)noc4C)c3)C(=O)C2(C)C)cc1O [Example 12-2, 3-(1-((3,5-dimethylisoxazol-4-yl)methyl)-1H-pyrazol-4-yl)-1-(3-hydroxy-4-methoxybenzyl)-5,5-dimethylimidazolidine-2,4-dione] | 60 |  | Selected as bitterer: With antagonists [1]: 2; Selected as bitterer: Without antagonists [1]: 14
COc1cc(O)cc(CN2C(=O)N(c3cnn(Cc4c(C)noc4C)c3)C(=O)C2(C)C)c1 [Example 12-17, 3-(1-((3,5-dimethylisoxazol-4-yl)methyl)-1H-pyrazol-4-yl)-1-(3-hydroxy-5-methoxybenzyl)-5,5-dimethylimidazolidine-2,4-dione] | 20 | 72 to 74 | Selected as bitterer: With antagonists [1]: 3; Selected as bitterer: Without antagonists [1]: 17
Cc1noc(C)c1Cn1cc(NC(=O)C23CC4CC(CC(C4)C2)C3)cn1 [Example 4-16, N-(1-((3,5-dimethylisoxazol-4-yl)methyl)-1H-pyrazol-4-yl) adamantane] | 880 | 167 to 169 | 
COc1cc(CC(=O)Nc2cnn(Cc3c(C)noc3C)c2)cc(OC)c1O [Example 4-4, N-(1-((3,5-dimethylisoxazol-4-yl)methyl)-1H-pyrazol-4-yl)-2-(4-hydroxy-3,5-dimethoxyphenyl)acetamide] | 460 | 187 to 188 | 
COc1cccc(CN2C(=O)N(c3cnn(Cc4c(C)noc4C)c3)C(=O)C2(C)C)c1 [Example 12-32, 3-(1-((3,5-dimethylisoxazol-4-yl)methyl)-1H-pyrazol-4-yl)-1-(3-methoxybenzyl)-5,5-dimethylimidazolidine-2,4-dione] | 80 | 107 to 108 | 
Cc1noc(C)c1Cn1cc(N2C(=O)c3ccccc3C2=O)cn1 [Example 9-1, 2-(1-((3,5-dimethylisoxazol-4-yl)methyl)-1H-pyrazol-4-yl)isoindoline-1,3-dione] | 180 | 170 to 171 | 
Cc1noc(C)c1Cn1cc(N2C(=O)NC(Cc3ccccc3)C2=O)cn1 (centres unmarked) [Example 10-2, 5-benzyl-3-(1-((3,5-dimethylisoxazol-4-yl)methyl)-1H-pyrazol-4-yl)imidazolidine-2,4-dione] | 180 | 169 to 171 | 
Cc1noc(C)c1Cn1cc(NC(=O)c2ccccn2)cn1 [Example 4-1, N-(1-((3,5-dimethylisoxazol-4-yl)methyl)-1H-pyrazol-4-yl)picolinamide] | 570 | 135 to 137 | 
COc1ccc(CN(Cc2ccco2)S(=O)(=O)c2ccc(C(=O)O)cc2)cc1 [Example 5-2, 4-(N-(furan-2-ylmethyl)-N-(4-methoxybenzyl)sulfamoyl)benzoic acid] |  | 151 to 152 | IC50 (hT2R14 [2]): 590 nM; inhibition at 25 µM (hT2R3): 40 to 60%; inhibition at 25 µM (hT2R4): 20 to 40%; inhibition at 25 µM (hT2R5): 20 to 40%; inhibition at 25 µM (hT2R7): 40 to 60%; inhibition at 25 µM (hT2R10): 60 to 80%; inhibition at 25 µM (hT2R14 [3]): > 80%; inhibition at 25 µM (hT2R16): 60 to 80%; screening result against bitter receptor 44 (hT2R44): +++ (60% to 80% inhibition = +++); inhibition at 25 µM (hT2R51): 40 to 60%; screening result against bitter receptor 54 (hT2R54): + (20% to 40% inhibition = +); screening result against bitter receptor 55 (hT2R55): ++++ (80% or greater inhibition = ++++); inhibition at 25 µM (hT2R61): > 80%; screening result against bitter receptor 63 (hT2R63): ++++ (80% or greater inhibition = ++++); inhibition at 25 µM (hT2R64): 60 to 80%; screening result against bitter receptor 65 (hT2R65): + (20% to 40% inhibition = +); screening result against bitter receptor 67 (hT2R67): + (20% to 40% inhibition = +); inhibition at 25 µM (hT2R71): 60 to 80%; inhibition at 25 µM (hT2R75): 20 to 40%
Cc1noc(C)c1Cn1cc(N2C(=O)CN(CCc3ccccc3)C2=O)cn1 [Example 10-78, 3-(1-((3,5-dimethylisoxazol-4-yl)methyl)-1H-pyrazol-4-yl)-1-phenethylimidazolidine-2,4-dione] | 140 | 95 to 96 | IC50 (hT2R8; [5]): 139 nM
Cc1noc(C)c1Cn1cc(-n2c(=O)n(C)n(Cc3ccccc3)c2=O)cn1 [Example 10-65, 1-Benzyl-4-(1-((3,5-dimethylisoxazol-4-yl)methyl)-1H-pyrazol-4-yl)-2-methyl-1,2,4-triazolidine-3,5-dione] | 20 | 124 to 126 | IC50 (hT2R8; [5]): 19 nM
Cc1noc(C)c1Cn1cc(NC(=O)c2scc(S(C)(=O)=O)c2Cl)cn1 [Example 4-2, 3-chloro-N-(1-((3,5-dimethylisoxazol-4-yl)methyl)-1H-pyrazol-4-yl)-4-(methylsulfonyl)thiophene-2-carboxamide] | 2090 | 202 to 204 | 
Cc1noc(C)c1Cn1cc(NC(=O)Cc2ccccc2)cn1 [Example 4-6, N-(1-((3,5-dimethylisoxazol-4-yl)methyl)-1H-pyrazol-4-yl)-2-phenylacetamide] | 530 | 106 to 108 | 
Cc1noc(C)c1Cn1cc(NC(=O)[C@@H](C)c2ccccc2)cn1 [Example 4-3, (S)—N-(1-((3,5-dimethylisoxazol-4-yl)methyl)-1H-pyrazol-4-yl)-2-phenylpropanamide] | 410 | 108 to 110 | 
